Measured values published in paper PMC7754465, “Multiparameter Kinetic Analysis for Covalent Fragment Optimization by Using Quantitative Irreversible Tethering (qIT)” (Chembiochem, 2020).

Test: qIT: rate of reaction with glutathione (intrinsic reactivity)
Format: physicochemical
Conditions: fragment 0.5 mM, glutathione 5 μM
Description: Previously we described a fluorescence‐based platform for screening cysteine‐targeting covalent fragments called quantitative irreversible tethering (qIT). ^[19] The method measures and compares the rate of reactions of individual fragments with the protein‐of‐interest (POI) and GSH (Figure 2a and b).
Figure 2 Comparison of previous and current applications of Quantitative irreversible tethering (qIT). a) Overview of rate determination. A cysteine‐containing biomolecule is treated with covalent fragments under pseudo‐first‐order conditions. Reaction progress is followed by discrete measurement of free cysteine concentration by using the fluorogenic probe CPM, and rate constants (k obs) are derived from exponential regression analysis. b) Comparison of the reactivity profile of each fragment with the POI and GSH typically classes them as unreactive, reactive but non‐selective or reactive and selective. c) Quantification of kinetic POI/GSH selectivity facilitates hit identification. d) The observed rate of reaction between the POI and hit fragment is determined at a range of ligand concentrations by using qIT. Subsequent hyperbolic regression analysis is used to derive K i and k inact to facilitate comprehensive covSAR analysis. […]

SMILES: C=CC(=O)N1CCCc2cc(C(=O)OC)ccc21 [compound 1]
- GSH: kobs/[I]: 0.02 M⁻¹ s⁻¹
